# Measured values reported in US20220395472A1 (Dermavant Sciences GmbH, priority 2021, published 2022).
# Tested on: adults with plaque psoriasis
# Test: Long-term open-label extension study (PSOARING 3): Physician Global Assessment (PGA), treatment episodes, treatment success, remittive effect
# Type: in vivo, human
# Conditions: for Proportion of subjects who never achieved PGA = 0 or 1 throughout the study / Proportion of subjects who achieved PGA = 0 or 1 at least 1 time during the study: entering with PGA ≥ 2
# Description: This extension study consisted of up to 40 weeks of treatment and a 4 week, safety follow up period.
# At the completion of the Week 12 visit of the DB, pivotal Phase 3 study, eligibility of the subjects opting to enroll in this extension study was confirmed. Study visits during the treatment period for all subjects occurred every 4 weeks (±3 days). A phone call was performed at Week 2 (Day 15). Unscheduled visits may have occurred, as needed. Subjects who withdrew from this study before Week 40 returned to the study center for an Early Termination visit. The total duration of this extension study participation was 44 weeks. Subjects in this study were treated as follows based on their PGA score from the Week 12 visit in the DB, pivotal Phase 3 study (Study DMVT 505 3001 or Study DMVT 505 3002).
# The PGA was used to assess the primary efficacy endpoint in this study. The PGA is a clinical tool for assessing the current state/severity of a subject's psoriasis at a given time point. It is a static, 5 point, morphological assessment of overall disease severity, as determined by the Investigator, using the clinical characteristics of erythema, scaling, and plaque thickness/elevation as guidelines; higher PGA scores represent more severe disease (0=clear, 1=almost clear, 2=mild, 3=moderate, and 4=severe). The BSA affected was not considered in scoring of the PGA. Variations of the PGA are frequently used in clinical studies because it is a simple assessment, similar to those used in clinical practice. The PGA was performed first, prior to the % BSA, PASI, and LTS assessments.
# Time to event parameters, such as the time from treatment success to subsequent worsening (PGA≥2) or duration of treatment episode, were summarized by the Kaplan Meier product limit method using OC.
# [1] = entering with PGA = 0, Kaplan-Meier, Overall
# [2] = entering with PGA = 0, Kaplan-Meier, Tapinarof (Pivotal) group
# [3] = entering with PGA = 0, Kaplan-Meier, Vehicle (Pivotal) group
# [4] = entering with PGA = 0, Tapinarof (Pivotal) group
# [5] = entering with PGA = 0, Vehicle (Pivotal) group
# [6] = entering with PGA ≥ 1, Kaplan-Meier, Vehicle (Pivotal) group
# [7] = entering with PGA ≥ 1, Tapinarof (Pivotal) group
# [8] = entering with PGA ≥ 1, Vehicle (Pivotal) group
# [9] = final analysis, overall, baseline
structure (smiles),measurement,setting,value
"CC(C)c1c(O)cc(/C=C/c2ccccc2)cc1O [Tapinarof, 3,5-Dihydroxy-4-isopropyl-trans-stilbene]",PGA 2 - Mild,"Week 40 OC, Vehicle (Pivotal)",35 (31.0) n (%)
same,PGA 3 - Moderate,"Week 40 OC, Vehicle (Pivotal)",15 (13.3) n (%)
same,PGA 4 - Severe,"Week 40 OC, Vehicle (Pivotal)",0 (0.0) n (%)
same,PGA Change from Baseline: Improved by 1,"Week 40 OC, Vehicle (Pivotal)",41 (36.3) n (%)
same,PGA Change from Baseline: Improved by 2,"Week 40 OC, Vehicle (Pivotal)",27 (23.9) n (%)
same,PGA Change from Baseline: Improved by 3,"Week 40 OC, Vehicle (Pivotal)",17 (15.0) n (%)
same,PGA Change from Baseline: Improved by 4,"Week 40 OC, Vehicle (Pivotal)",1 (0.9) n (%)
same,PGA Change from Baseline: No Change,"Week 40 OC, Vehicle (Pivotal)",19 (16.8) n (%)
same,PGA Change from Baseline: Worsened by 1,"Week 40 OC, Vehicle (Pivotal)",7 (6.2) n (%)
same,PGA Change from Baseline: Worsened by 2,"Week 40 OC, Vehicle (Pivotal)",1 (0.9) n (%)
same,PGA Change from Baseline: Worsened by 3,"Week 40 OC, Vehicle (Pivotal)",0 (0.0) n (%)
same,PGA Change from Baseline: Worsened by 4,"Week 40 OC, Vehicle (Pivotal)",0 (0.0) n (%)
same,"Durability of Response, No. of Subjects","Wk. 0, Overall",240
same,"Durability of Response, No. of Subjects","Wk. 0, Tapinarof→Tapinarof",18
same,"Durability of Response, No. of Subjects","Wk. 4, Overall",273
same,"Durability of Response, No. of Subjects","Wk. 4, Tapinarof→Tapinarof",216
same,"Durability of Response, No. of Subjects","Wk. 4, Vehicle→Tapinarof",57
same,"Durability of Response, No. of Subjects","Wk. 8, Overall",330
same,"Durability of Response, No. of Subjects","Wk. 8, Tapinarof→Tapinarof",243
same,"Durability of Response, No. of Subjects","Wk. 8, Vehicle→Tapinarof",87
same,"Durability of Response, No. of Subjects","Wk. 12, Overall",334
same,"Durability of Response, No. of Subjects","Wk. 12, Tapinarof→Tapinarof",233
same,"Durability of Response, No. of Subjects","Wk. 16, Overall",336
same,"Durability of Response, No. of Subjects","Wk. 16, Tapinarof→Tapinarof",239
same,"Durability of Response, No. of Subjects","Wk. 16, Vehicle→Tapinarof",97
same,"Durability of Response, No. of Subjects","Wk. 20, Overall",358
same,"Durability of Response, No. of Subjects","Wk. 20, Tapinarof→Tapinarof",250
same,"Durability of Response, No. of Subjects","Wk. 24, Overall",346
same,"Durability of Response, No. of Subjects","Wk. 24, Tapinarof→Tapinarof",236
same,"Durability of Response, No. of Subjects","Wk. 28, Overall",336
same,"Durability of Response, No. of Subjects","Wk. 28, Tapinarof→Tapinarof",230
same,"Durability of Response, No. of Subjects","Wk. 32, Overall",339
same,"Durability of Response, No. of Subjects","Wk. 32, Tapinarof→Tapinarof",233
same,"Durability of Response, No. of Subjects","Wk. 36, Overall",340
same,"Durability of Response, No. of Subjects","Wk. 36, Tapinarof→Tapinarof",225
same,"Durability of Response, No. of Subjects","Wk. 40, Overall",330
same,"Durability of Response, No. of Subjects","Wk. 40, Tapinarof→Tapinarof",224
same,"Time to First Worsening (PGA ≥ 2), Median (95% CI)","entering with PGA = 0 (n=78), Kaplan-Meier, Overall, interim","115 (85.0, 162.0) days"
same,"Time to First Worsening (PGA ≥ 2), 25th percentile (95% CI)",[1],"54 (29.0, 66.0) days"
same,"Time to First Worsening (PGA ≥ 2), 75th percentile (95% CI)",[1],"222 (169.0, 309.0) days"
same,"Time to First Worsening (PGA ≥ 2), 25th percentile (95% CI)",[2],"54 (29.0, 76.0) days"
same,"Time to First Worsening (PGA ≥ 2), 75th percentile (95% CI)",[2],"196 (168.0, 309.0) days"
same,"Time to First Worsening (PGA ≥ 2), Median (95% CI)",[2],"114 (85.0, 142.0) days"
same,"Time to First Worsening (PGA ≥ 2), 25th percentile (95% CI)",[3],"66 (42.0, NE) days"
same,"Time to First Worsening (PGA ≥ 2), Median (95% CI)",[3],"281 (42.0, NE) days"
same,Proportion of subjects who experienced PGA ≥ 2 at least 1 time during the study,"entering with PGA = 0, Overall",59/78 (75.6) %
same,Proportion of subjects who never experienced PGA ≥ 2 throughout the study,"entering with PGA = 0, Overall",19/78 (24.4) %
same,Proportion of subjects who experienced PGA ≥ 2 at least 1 time during the study,"entering with PGA = 0, Overall, listed as tapinarof",75.6%
same,Proportion of subjects who experienced PGA ≥ 2 at least 1 time during the study,[4],56/73 (76.7) %
same,Proportion of subjects who never experienced PGA ≥ 2 throughout the study,[4],17/73 (23.3) %
same,Proportion of subjects who experienced PGA ≥ 2 at least 1 time during the study,[5],3/5 (60.0) %
same,Proportion of subjects who never experienced PGA ≥ 2 throughout the study,[5],2/5 (40.0) %
same,"Time to First Achieving PGA = 0, 25th percentile","entering with PGA ≥ 1, Kaplan-Meier, Overall",141 days
same,"Time to First Achieving PGA = 0, 25th percentile","entering with PGA ≥ 1, Kaplan-Meier, Overall, listed as tapinarof",141 days
same,"Time to First Achieving PGA = 0, 25th percentile","entering with PGA ≥ 1, Kaplan-Meier, Tapinarof (Pivotal) group",113 days
same,"Time to First Achieving PGA = 0, 25th percentile","entering with PGA ≥ 1, Kaplan-Meier, Tapinarof (Pivotal) group, listed as tapinarof",113 days
same,"Time to First Achieving PGA = 0, 25th percentile",[6],169 days
same,"Time to First Achieving PGA = 0, Median",[6],313 days
same,"Time to First Achieving PGA = 0, 25th percentile","entering with PGA ≥ 1, Kaplan-Meier, Vehicle (Pivotal) group, listed as tapinarof",169 days
same,Proportion of subjects who achieved PGA = 0 at least 1 time during the study,"entering with PGA ≥ 1, Overall",221/681 (32.5) %
same,Proportion of subjects who never achieved PGA = 0 throughout the study,"entering with PGA ≥ 1, Overall",460/681 (67.5) %
same,Proportion of subjects who achieved PGA = 0 at least 1 time during the study,"entering with PGA ≥ 1, Overall, listed as tapinarof",32.5%
same,Proportion of subjects who achieved PGA = 0 at least 1 time during the study,[7],139/432 (32.2) %
same,Proportion of subjects who never achieved PGA = 0 throughout the study,[7],293/432 (67.8) %
same,Proportion of subjects who achieved PGA = 0 at least 1 time during the study,"entering with PGA ≥ 1, Tapinarof (Pivotal) group, listed as tapinarof",32.2%
same,Proportion of subjects who achieved PGA = 0 at least 1 time during the study,[8],82/249 (32.9) %
same,Proportion of subjects who never achieved PGA = 0 throughout the study,[8],167/249 (67.1) %
same,Proportion of subjects who achieved PGA = 0 at least 1 time during the study,"entering with PGA ≥ 1, Vehicle (Pivotal) group, listed as tapinarof",32.9%
same,Proportion of subjects who never achieved PGA = 0 or 1 throughout the study,Overall,222/520 (42.7) %
same,Proportion of subjects who achieved PGA = 0 or 1 at least 1 time during the study,"Overall, interim",298/520 (57.3) %
same,Proportion of subjects who achieved PGA = 0 or 1 at least 1 time during the study,"Overall, interim, listed as tapinarof",57.3%
same,Proportion of subjects who achieved PGA = 0 or 1 at least 1 time during the study,Tapinarof (Pivotal) group,154/288 (53.5) %
same,Proportion of subjects who never achieved PGA = 0 or 1 throughout the study,Tapinarof (Pivotal) group,134/288 (46.5) %
same,Proportion of subjects who achieved PGA = 0 or 1 at least 1 time during the study,"Tapinarof (Pivotal) group, listed as tapinarof",53.5%
same,Proportion of subjects who achieved PGA = 0 or 1 at least 1 time during the study,Vehicle (Pivotal) group,144/232 (62.1) %
same,Proportion of subjects who never achieved PGA = 0 or 1 throughout the study,Vehicle (Pivotal) group,88/232 (37.9) %
same,Proportion of subjects who achieved PGA = 0 or 1 at least 1 time during the study,"Vehicle (Pivotal) group, listed as tapinarof",62.1%
same,Patients entering with PGA≥2 who achieved PGA 0 or 1 at least once during the study,final analysis,58.2%
same,Patients who achieved complete disease clearance (PGA=0) at least once during the study,"final analysis, 312/763",40.9%
same,participants with PGA=0 or 1,"final analysis, overall, Week 40",44.3%
same,participants with PGA=0,[9],10.4%
same,participants with PGA=0 or 1,[9],31.6%
same,mean total duration of remittive effect,"final analysis, patients entering with, or achieving, PGA=0 (n=312)",130 days
